Values of other authors, collected in patent publication US20210187081A1, “FORMULATIONS AND DOSES OF PEGYLATED URICASE” (Selecta Biosciences, Inc., priority 2019, published 2021).
Like-named read-outs stand apart in the source and are kept apart here.

Columns and labels:
[1] = system: patients with gout with an inadequate response to allopurinol; settings: for Patients with gout flares requiring treatment in a month: colchicine prophylaxis
[2] = system: Patients with Hyperuricemia and Gout; settings: for Subjects who required treatment for at least one gout flare: first 8 weeks, with gout flare prophylaxis

O=C(O)CSc1nnc(Br)n1-c1ccc(C2CC2)c2ccccc12 [Lesinurad, lesinurad]
Patients with gout flares requiring treatment in a month ([1]; 200 mg daily): 10 out of 46 | Flares per patient month (flare frequency) ([1]; 200 mg/day): 0.22 flares per patient month | Time of efficacy (area under curve of mean sUA levels over time) ([1]; 200 mg/day): 158.5 | Patients with gout flares requiring treatment in a month ([1]; 400 mg daily): 13 out of 42 | Flares per patient month (flare frequency) ([1]; 400 mg/day): 0.31 flares per patient month | Time of efficacy (area under curve of mean sUA levels over time) ([1]; 400 mg/day): 165.8 | Patients with gout flares requiring treatment in a month ([1]; 600 mg daily): 15 out of 48 | Flares per patient month (flare frequency) ([1]; 600 mg/day): 0.31 flares per patient month | Time of efficacy (area under curve of mean sUA levels over time) ([1]; 600 mg/day): 167.5

Cc1nc(-c2ccc(OCC(C)C)c(C#N)c2)sc1C(=O)O [Febuxostat, febuxostat]
Flares per patient month (flare frequency) ([2]; 80 mg/day): 0.22 flares per patient month | Subjects who required treatment for at least one gout flare ([2]; 80 mg/day): 55 out of 255 | Flares per patient month (flare frequency) ([2]; 80 mg/day, listed as febuxostat): at least 0.22 flares per patient month | Flares per patient month (flare frequency) ([2]; 120 mg/day): 0.36 flares per patient month | Subjects who required treatment for at least one gout flare ([2]; 120 mg/day): 90 out of 250 | Flares per patient month (flare frequency) ([2]; 120 mg/day, listed as febuxostat): ≥ 0.36 flares per patient month
